Measured values reported in patent publication US7807684B2, “HIV reverse transcriptase inhibitors” (Merck Sharp & Dohme Corp., priority 2005, dated 2010).

Assay: Oral dosing to rats, bioavailability
Type: in vivo
Conditions: compared to analogous dosing of the compound of Example 36

Bioavailability: substantially higher bioavailability
SMILES: CNCCN(C)C(=O)n1nc(COc2ccc(Cl)c(Oc3cc(Cl)cc(C#N)c3)c2)c2cccnc21.Cl [Example 59, 2-[[(3-{[4-chloro-3-(3-chloro-5-cyanophenoxy)phenoxy]methyl}-1H-pyrazolo[3,4-b]pyridin-1-yl)carbonyl](methyl)amino]-N-methylethanaminium chloride]
